The results in this text go back to patent US11299519B2, “Host cells and methods using a repressor polypeptide and an inducible promoter for gene expression” (The Regents of the University of California, priority 2015, dated 2022).

One assay relates to Eil-promoter. Put plainly: Induction of Eil-promoter (EilR-regulated, reporter gene) by hydrophobic cations. In kind it is cell-based, E. coli. The settings on record: preliminary results for the leuco-form. The text has this: A series of EilR-regulated promoters have been identified by creating a library that contains an eil-operator and randomized core promoter sequences coupled to a reporter gene. […] Subsequent optimizations have led to several Eil-promoters with improved properties.
The Eil- or Qac-promoters are useful as tools for monitoring real time oxidative stress. […] An Eil-promoter or Qac-promoter coupled with a reporter gene can serve as a signal-amplifying sensor for real time in vivo oxidative stress, which could be useful to monitor and understand physiological stress reactions. Similarly, heme catalyzes the oxidation of the colorless leucocrystal violet to its purple cation by reducing hydrogen peroxide. This colorful radical reaction is utilized in forensics to uncover removed blood stains. Crystal violet induces Eil-biosensors at concentrations that are much lower than the eye can detect. Such a sensor could be a sensitive tool for blood detection in forensic analyses.
Numbers in brackets indicate the concentration applied for induction (in μM).
In general terms: In a reporter assay the amount or activity of a reporter protein is the signal.

Another assay relates to SmvR. Put plainly: RFP expression from an Eil-promoter regulated by EilR homologue SmvR. In kind it is cell-based, Salmonella typhimurium. As to conditions: in E. coli; eilO consensus operator. The text has this: (§1) The EilR homologues SmvR (from Salmonella typhimurium) and KmrR (from Klebsiella BRL6-2) regulate RFP expression from an Eil-promoter in E. coli. Like EilR, these repressors bind to the eilO consensus operator and are induced e.g. by crystal violet.

A further assay deals with KmrR. Put plainly: RFP expression from an Eil-promoter regulated by EilR homologue KmrR. The settings on record: in E. coli; eilO consensus operator. In kind it is cell-based, Klebsiella BRL6-2.
Excerpt: as §1

The subject of the next assay is p1-promoter. Put plainly: RFP expression from the p1-promoter in various bacteria. The settings on record: same plasmid in all strains (BBR origin of replication). In kind it is cell-based, Three different gram-negative bacteria. The source says: All strains contain the same plasmid (BBR origin of replication).
The functionality of Eil-promoters is not restricted to E. coli and offers an expression platform in various host organisms. […] In addition to bacterial promoters, the eil operators can be used to control expression from phage promoters such as T7. […] RFP was expressed from a T7 promoter controlled either by an IPTG-inducible lac operator or an acridine orange-inducible eil operator. The chromosomal T7-RNA polymerase was expressed from a Lac-promoter in both cases (in E. coli BL21-DE3). In the future, T7 RNA-polymerase expression could also be controlled by an Eil-promoter. […] All strains contain the same plasmid (BBR origin of replication).

Regarding `CN(C)c1ccc(C(c2ccc(N(C)C)cc2)c2ccc(N(C)C)cc2)cc1` [leucocrystal violet], the “induction of Eil-promoters” value in the assay on Eil-promoter is listed as “does not cause induction”.

Turning to `CN(C)c1ccc(C(=C2C=CC(=[N+](C)C)C=C2)c2ccc(N(C)C)cc2)cc1` [crystal violet], the “induction of Eil-promoters” value in the assay on Eil-promoter was “induces Eil-promoters at nanomolar concentrations”. Also, the “induction of SmvR-regulated RFP expression from an Eil-promoter” value in the assay with SmvR is “induced”. Further, the “induction of KmrR-regulated RFP expression from an Eil-promoter” value with KmrR is “induced”.

As for `CN(C)c1ccc2cc3ccc(N(C)C)cc3nc2c1` [acridine orange], in the assay with p1-promoter, the “RFP expression from the p1-promoter on induction” value is “express RFP from the p1-promoter”.
